Measurements from patent US7737173B2, “Indole-3-carboxylic acid amide, ester, thioamide and thiol ester compounds bearing aryl or heteroaryl groups having sphingosine-1-phosphate (S1P) receptor antagonist biological activity” (Allergan, Inc., priority 2006, dated 2010).
pIC50: −log10 of the molar value. Where two headings read alike, the source gives them in different places.

Legend:
[1] = target: T1, human S1P3 receptor (Homo sapiens, UniProt Q99500); test: FLIPR Ca+2 assay: ability to activate or block activation of the human S1P3 receptor in T24 cells; assay type: cell-based
T1 construct: expressed in transfected cells
Protocol: Compounds were assessed for their ability to activate or block activation of the human S1P3 receptor in T24 cells stably expressing the human S1P3 receptor. Ten thousand cells/well were plated into 384-well poly-D-lysine coated plates one day prior to use. The growth media for the S1P3 receptor expressing cell line was McCoy's 5A medium supplemented with 10% charcoal-treated fetal bovine serum (FBS), 1% antibiotic-antimycotic and 400 μg/ml geneticin. On the day of the experiment, the cells were washed twice with Hank's Balanced Salt Solution supplemented with 20 mM HEPES (HBSS/Hepes buffer). The cells were then dye loaded with 2 uM Fluo-4 diluted in the HBSS/Hepes buffer with 1.25 mM Probenecid and incubated at 37° C. for 40 minutes. Extracellular dye was removed by washing the cell plates four times prior to placing the plates in the FLIPR (Fluorometric Imaging Plate Reader, Molecular Devices). Ligands were diluted in HBSS/Hepes buffer and prepared in 384-well microplates. The positive control, Sphingosine-1-Phosphate (SIP), was diluted in HBSS/Hepes buffer with 4 mg/ml fatty acid free bovine serum albumin. The FLIPR transferred 12.5 μl from the ligand microplate to the cell plate and took fluorescent measurements for 75 seconds, taking readings every second, and then for 2.5 minutes, taking readings every 10 seconds. Drugs were tested over the concentration range of 0.61 nM to 10,000 nM. Data for Ca^+2 responses were obtained in arbitrary fluorescence units and not translated into Ca^+2 concentrations. IC50 values were determined through a […] analysis using the Levenburg Marquardt algorithm.

[2] = tested on: perfused porcine eyes; details: by altering paracellular permeability, IOVS 45, 2263, 2004; cited from earlier work
[3] = T24 cells stably expressing human S1P3, antagonist activity, tested 0.61 nM to 10,000 nM, read-out: S1P3 IC50
[4] = T-24, T24 cells stably expressing human S1P3, antagonist activity, value in parentheses, read-out: S1P3 (% eff.)

T1 sequence (Q99500 whole entry): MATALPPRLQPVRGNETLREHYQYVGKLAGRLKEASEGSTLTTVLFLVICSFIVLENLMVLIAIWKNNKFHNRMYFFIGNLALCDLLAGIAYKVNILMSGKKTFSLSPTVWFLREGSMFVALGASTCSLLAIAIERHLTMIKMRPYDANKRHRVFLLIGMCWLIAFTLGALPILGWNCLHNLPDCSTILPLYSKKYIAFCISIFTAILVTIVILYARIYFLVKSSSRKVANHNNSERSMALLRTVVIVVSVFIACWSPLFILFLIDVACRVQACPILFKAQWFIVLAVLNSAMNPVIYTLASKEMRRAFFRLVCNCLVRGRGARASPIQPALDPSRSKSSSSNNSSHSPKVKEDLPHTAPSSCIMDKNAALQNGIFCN

Cc1c(C(=O)NCc2cc(F)cc(F)c2)c2cc(O)ccc2n1Cc1ccccc1 [Compound 3, 1-Benzyl-5-hydroxy-2-methyl-1H-indole-3-carboxylic Acid, 3,5-Difluorobenzylamide]
pIC50 [1]: 6.29
Emax ([1]; T-24, read-out: S1P3 (% eff.)): 53%

Cc1c(C(=O)NCc2ccc(F)c(F)c2)c2cc(O)ccc2n1Cc1cccs1 [Compound 4, 5-Hydroxy-2-methyl-1-thiophen-2-ylmethyl-1H-indole-3-carboxylic Acid, 3,4-Difluorobenzylamide]
pIC50 [1]: 5.77
Emax ([1]; T-24, read-out: S1P3 (% eff.)): 66%

CCCCn1c(C)c(C(=O)NCc2cc(F)cc(F)c2)c2cc(O)ccc21 [Compound 6, 1-Butyl-5-hydroxy-2-methyl-1H-indole-3-carboxylic Acid, 3,5-Difluoro-benzylamide]
pIC50 [1]: 5.60
Emax ([1]; T-24, read-out: S1P3 (% eff.)): 55%

Cc1c(C(=O)NCc2ccc(F)c(F)c2)c2cc(O)ccc2n1Cc1ccco1 [Compound 9, 1-Furan-2-ylmethyl-5-hydroxy-2-methyl-1H-indole-3-carboxylic Acid, 3,4-Difluorobenzylamide]
pIC50 [1]: 5.54
Emax ([1]; T-24, read-out: S1P3 (% eff.)): 97%

Cc1c(C(=O)NCc2cc(F)cc(F)c2)c2cc(O)ccc2n1Cc1cccs1 [Compound 11, 5-Hydroxy-2-methyl-1-thiophen-2-ylmethyl-1H-indole-3-carboxylic Acid, 3,5-Difluorobenzylamide]
pIC50 [1]: 5.74
Emax ([1]; T-24, read-out: S1P3 (% eff.)): 67%

Cc1c(C(=O)NCc2cc(F)cc(F)c2)c2cc(O)ccc2n1Cc1ccco1 [Compound 12, 1-Furan-2-ylmethyl-5-hydroxy-2-methyl-1H-indole-3-carboxylic Acid 3,5-Difluorobenzylamide]
pIC50 [1]: 6.02
Emax ([1]; T-24, read-out: S1P3 (% eff.)): 77%

Cc1c(C(=O)NCc2ccc(F)c(F)c2)c2cc(O)ccc2n1Cc1ccccc1 [Compound 13, 1-Benzyl-5-hydroxy-2-methyl-1H-indole-3-carboxylic Acid, 3,4-Difluoro-benzylamide]
pIC50 [1]: 5.82
Emax ([1]; T-24, read-out: S1P3 (% eff.)): 84%

Cc1c(C(=O)NCc2cccc(F)c2)c2cc(O)ccc2n1Cc1cccs1 [Compound 14, 5-Hydroxy-2-methyl-1-thiophen-2-ylmethyl-1H-indole-3-carboxylic Acid, 3-Fluorobenzylamide]
pIC50 [1]: 5.49
Emax ([1]; T-24, read-out: S1P3 (% eff.)): 85%

Cc1c(C(=O)NCc2ccccc2)c2cc(O)ccc2n1Cc1cccs1 [Compound 15, 5-Hydroxy-2-methyl-1-thiophen-2-ylmethyl-1H-indole-3-carboxylic Acid, Benzylamide]
pIC50 [1]: 5.80
Emax ([1]; T-24, read-out: S1P3 (% eff.)): 48%

COc1cccc(CNC(=O)c2c(C)n(Cc3cccs3)c3ccc(O)cc23)c1 [Compound 17, 5-Hydroxy-2-methyl-1-thiophen-2-ylmethyl-1H-indole-3-carboxylic Acid, 3-Methoxybenzylamide]
pIC50 [1]: 6.04
Emax ([1]; T-24, read-out: S1P3 (% eff.)): 33%

CCCCn1c(C)c(C(=O)NCc2cccc(OC)c2)c2cc(O)ccc21 [Compound 18, 1-Butyl-5-hydroxy-2-methyl-1H-indole-3-carboxylic Acid, 3-Methoxy-benzylamide]
pIC50 [1]: 5.29
Emax ([1]; T-24, read-out: S1P3 (% eff.)): 42%

Cc1c(C(=O)NCc2ccc(F)cc2)c2cc(O)ccc2n1Cc1cccs1 [Compound 19, 5-Hydroxy-2-methyl-1-thiophen-2-ylmethyl-1H-indole-3-carboxylic Acid, 4-Fluorobenzylamide]
pIC50 [1]: 5.57
Emax ([1]; T-24, read-out: S1P3 (% eff.)): 72%

Cc1ccc(CNC(=O)c2c(C)n(Cc3cccs3)c3ccc(O)cc23)cc1 [Compound 20, 5-Hydroxy-2-methyl-1-thiophen-2-ylmethyl-1H-indole-3-carboxylic Acid, 4-Methylbenzylamide]
pIC50 [1]: 5.60
Emax ([1]; T-24, read-out: S1P3 (% eff.)): 71%

Cc1c(C(=O)NCc2cccc(Cl)c2)c2cc(O)ccc2n1Cc1cccs1 [Compound 21, 5-Hydroxy-2-methyl-1-thiophen-2-ylmethyl-1H-indole-3-carboxylic Acid, 3-Chlorobenzylamide]
pIC50 [1]: 5.92
Emax ([1]; T-24, read-out: S1P3 (% eff.)): 38%

Cc1c(C(=O)NCc2ccc(Cl)cc2)c2cc(O)ccc2n1Cc1cccs1 [Compound 22, 5-Hydroxy-2-methyl-1-thiophen-2-ylmethyl-1H-indole-3-carboxylic Acid, 4-Chlorobenzylamide]
pIC50 [1]: 5.60
Emax ([1]; T-24, read-out: S1P3 (% eff.)): 83%

COc1ccccc1CNC(=O)c1c(C)n(Cc2cccs2)c2ccc(O)cc12 [Compound 23, 5-Hydroxy-2-methyl-1-thiophen-2-ylmethyl-1H-indole-3-carboxylic Acid, 2-methoxybenzylamide]
pIC50 [1]: 5.62
Emax ([1]; T-24, read-out: S1P3 (% eff.)): 23%

CCc1c(C(=O)NCc2ccc(F)c(F)c2)c2cc(O)ccc2n1Cc1ccccc1 [Compound 25, 1-Benzyl-2-ethyl-5-hydroxy-1H-indole-3-carboxylic Acid, 3,4-Difluoro-benzylamide]
pIC50 [1]: 6.15
Emax ([1]; T-24, read-out: S1P3 (% eff.)): 98%

CCc1c(C(=O)NCc2cccc(OC)c2)c2cc(O)ccc2n1Cc1ccccc1 [Compound 26, 1-Benzyl-2-ethyl-5-hydroxy-1H-indole-3-carboxylic Acid, 3-Methoxy-benzylamide]
pIC50 [1]: 5.72
Emax ([1]; T-24, read-out: S1P3 (% eff.)): 97%

CC(C)c1c(C(=O)NCc2ccc(F)c(F)c2)c2cc(O)ccc2n1Cc1ccccc1 [Compound 28, 1-Benzyl-5-hydroxy-2-isopropyl-1H-indole-3-carboxylic Acid, 3,4-Difluorobenzamide]
pIC50 [1]: 7.26
Emax ([1]; T-24, read-out: S1P3 (% eff.)): 98%

Cc1c(C(=O)NCc2ccc(F)c(F)c2)c2cc(O)ccc2n1-c1ccccc1 [Compound 29, 5-Hydroxy-2-methyl-1-phenyl-1H-indole-3-carboxylic Acid 3,4-Difluoro-benzylamide]
pIC50 [1, 3]: 5.01
Emax [1, 4]: 76%

Cc1c(C(=O)NCc2ccc(F)c(F)c2)c2cc(O)ccc2n1-c1ccccn1 [Compound 30, 5-Hydroxy-2-methyl-1-pyridin-2-yl-1H-indole-3-carboxylic Acid 3,4-Difluoro-benzylamide]
pIC50 [1, 3]: 5.82
Emax [1, 4]: 23%

Cc1c(C(=O)NCc2ccc(F)c(F)c2)c2cc(O)ccc2n1-c1cccs1 [Compound 31, 5-Hydroxy-2-methyl-1-thiophen-2-yl-1H-indole-3-carboxylic Acid 3,4-Difluorobenzylamide]
pIC50 [1, 3]: 5.60
Emax [1, 4]: 81%

CCc1c(C(=O)NCc2cc(F)cc(F)c2)c2cc(O)ccc2n1Cc1ccccc1 [Compound 32, 1-Benzyl-2-ethyl-5-hydroxy-1H-indole-3-carboxylic Acid 3,5-Difluoro-benzylamide]
pIC50 [1]: 6.55
Emax ([1]; T-24, read-out: S1P3 (% eff.)): 97%

CC(C)c1c(C(=O)NCc2cc(F)cc(F)c2)c2cc(O)ccc2n1Cc1ccccc1 [Compound 33, 1-Benzyl-5-hydroxy-2-isopropyl-1H-indole-3-carboxylic Acid, 3,5-difluorobenzylamide]
pIC50 [1]: 6.96
Emax ([1]; T-24, read-out: S1P3 (% eff.)): 99%

COc1cccc(CNC(=O)c2c(C(C)C)n(Cc3ccccc3)c3ccc(O)cc23)c1 [Compound 34, 1-Benzyl-5-hydroxy-2-isopropyl-1H-indole-3-carboxylic Acid, 3-methoxybenzylamide]
pIC50 [1]: 6.39
Emax ([1]; T-24, read-out: S1P3 (% eff.)): 98%

O=C(NCc1cc(F)cc(F)c1)c1c(-c2ccccc2)n(Cc2ccccc2)c2ccc(O)cc12 [Compound 48, 1-Benzyl-5-hydroxy-2-phenyl-1H-indole-3-carboxylic Acid, 3,5-Difluoro-benzylamide]
pIC50 [1]: 6.06
Emax ([1]; T-24, read-out: S1P3 (% eff.)): 98%

CCCCCCCCCCCCC/C=C/[C@@H](O)[C@@H](N)COP(=O)(O)O [Compound S1P, Sphingosine-1-Phosphate]
decrease of outflow facility [2]: > 30%
